In patent US11202818B2, “Methods and compositions for modulating erythropoiesis” (President and Fellows of Harvard College, priority 2016, dated 2021):

System: Kit+CD55+Lin-CD71lo BM cells
Test: ETD activation in cultured pre-ETD BM cells with S phase arrest
Format: cell-based, mouse
Protocol: To test whether the synchronization of ETD activation with S phase reflects mechanistic dependence, BM cells were isolated prior to the onset of ETD (Kit+CD55+Lin−CD71lo, FIG. 5, Panels f-h). The cells were cultured in the presence of Epo, which allowed them to activate the ETD, reflected first by the upregulation of CD71, followed by the upregulation of the erythroid cell surface marker Ter119, and induction of the beta-globin gene (Hbb-b1). […] The ensuing ETD activation proceeded with a 10-hour delay in the induction of CD71 and Hbb-b1 (FIG. 5, Panels g and h).

[1] = added for the first 10 hours of culture with Epo

C[C@@]1(CO)[C@H](O)CC[C@@]2(C)[C@H]1CC[C@H]1C[C@@H]3C[C@@]12CC[C@]3(O)CO [aphidicolin]
effect on S phase [1]: arrested S phase
effect on upregulation of CD71 [1]: paused upregulation of CD71
delay in the induction of CD71 and Hbb-b1 (after removal, added for the first 10 hours): 10 h
